Numbers after ± are expanded uncertainties.
Legend:
[1] = relative permittivity at zero frequency (dimensionless); wn = mass fraction of the nth substance listed; conditions: 100 kPa, Liquid, time-domain reflectometry
[2] = relative permittivity at zero frequency (dimensionless); conditions: 100 kPa, Liquid, time-domain reflectometry

OC[C@@H](O)[C@@H](O)[C@H](O)[C@H](O)CO [mannitol] + C[S+](C)[O-]
relative permittivity at zero frequency ([1]; 283.15 K, w1 = 0.05): 52.35 ± 1.1 | relative permittivity at zero frequency ([1]; 283.15 K, w1 = 0.1): 55.31 ± 1.1 | relative permittivity at zero frequency ([1]; 283.15 K, w1 = 0.15): 56.79 ± 1.1 | relative permittivity at zero frequency ([1]; 288.15 K, w1 = 0.05): 50.82 ± 1 | relative permittivity at zero frequency ([1]; 288.15 K, w1 = 0.1): 52.92 ± 1.1 | relative permittivity at zero frequency ([1]; 288.15 K, w1 = 0.15): 55.37 ± 1.1 | relative permittivity at zero frequency ([1]; 293.15 K, w1 = 0.05): 49.49 ± 0.99 | relative permittivity at zero frequency ([1]; 293.15 K, w1 = 0.1): 51.48 ± 1 | relative permittivity at zero frequency ([1]; 293.15 K, w1 = 0.15): 53.15 ± 1.1 | relative permittivity at zero frequency ([1]; 298.15 K, w1 = 0.05): 48.89 ± 0.98 | relative permittivity at zero frequency ([1]; 298.15 K, w1 = 0.1): 50.27 ± 1 | relative permittivity at zero frequency ([1]; 298.15 K, w1 = 0.15): 52.18 ± 1

C[S+](C)[O-] [dimethyl sulfoxide] + OC[C@@H](O)[C@@H](O)[C@H](O)[C@H](O)CO
relative permittivity at zero frequency ([1]; 283.15 K, w2 = 0): 50.58 ± 1 | relative permittivity at zero frequency ([1]; 288.15 K, w2 = 0): 49.42 ± 0.99 | relative permittivity at zero frequency ([1]; 293.15 K, w2 = 0): 47.81 ± 0.96 | relative permittivity at zero frequency ([1]; 298.15 K, w2 = 0): 47.3 ± 0.95

C[S+](C)[O-] [dimethyl sulfoxide] + OC[C@@H](O)[C@@H](O)CO
relative permittivity at zero frequency ([1]; 283.15 K, w2 = 0): 50.58 ± 1 | relative permittivity at zero frequency ([1]; 288.15 K, w2 = 0): 49.42 ± 0.99 | relative permittivity at zero frequency ([1]; 293.15 K, w2 = 0): 47.81 ± 0.96 | relative permittivity at zero frequency ([1]; 298.15 K, w2 = 0): 47.3 ± 0.95

C[S+](C)[O-] [dimethyl sulfoxide]
relative permittivity at zero frequency ([2]; 283.15 K): 50.58 ± 1 | relative permittivity at zero frequency ([2]; 288.15 K): 49.42 ± 0.99 | relative permittivity at zero frequency ([2]; 293.15 K): 47.81 ± 0.96 | relative permittivity at zero frequency ([2]; 298.15 K): 47.3 ± 0.95

OC[C@@H](O)[C@H](O)[C@@H](O)CO [xylitol] + C[S+](C)[O-]
relative permittivity at zero frequency ([1]; 283.15 K, w1 = 0.05): 52.53 ± 1.1 | relative permittivity at zero frequency ([1]; 283.15 K, w1 = 0.1): 53.28 ± 1.1 | relative permittivity at zero frequency ([1]; 283.15 K, w1 = 0.15): 56.35 ± 1.1 | relative permittivity at zero frequency ([1]; 283.15 K, w1 = 0.2): 58.46 ± 1.2 | relative permittivity at zero frequency ([1]; 283.15 K, w1 = 0.25): 58.08 ± 1.2 | relative permittivity at zero frequency ([1]; 288.15 K, w1 = 0.05): 50.33 ± 1 | relative permittivity at zero frequency ([1]; 288.15 K, w1 = 0.1): 51.31 ± 1 | relative permittivity at zero frequency ([1]; 288.15 K, w1 = 0.15): 53.72 ± 1.1 | relative permittivity at zero frequency ([1]; 288.15 K, w1 = 0.2): 55.28 ± 1.1 | relative permittivity at zero frequency ([1]; 288.15 K, w1 = 0.25): 55.18 ± 1.1 | relative permittivity at zero frequency ([1]; 293.15 K, w1 = 0.05): 49.39 ± 0.99 | relative permittivity at zero frequency ([1]; 293.15 K, w1 = 0.1): 50.11 ± 1 | relative permittivity at zero frequency ([1]; 293.15 K, w1 = 0.15): 52.45 ± 1.1 | relative permittivity at zero frequency ([1]; 293.15 K, w1 = 0.2): 53.97 ± 1.1 | relative permittivity at zero frequency ([1]; 293.15 K, w1 = 0.25): 54.23 ± 1.1 | relative permittivity at zero frequency ([1]; 298.15 K, w1 = 0.05): 48.1 ± 0.96 | relative permittivity at zero frequency ([1]; 298.15 K, w1 = 0.1): 49.63 ± 0.99 | relative permittivity at zero frequency ([1]; 298.15 K, w1 = 0.15): 51.6 ± 1 | relative permittivity at zero frequency ([1]; 298.15 K, w1 = 0.2): 53.03 ± 1.1 | relative permittivity at zero frequency ([1]; 298.15 K, w1 = 0.25): 53.69 ± 1.1

OC[C@@H](O)[C@@H](O)CO [meso-1,2,3,4-butanetetrol] + C[S+](C)[O-]
relative permittivity at zero frequency ([1]; 283.15 K, w1 = 0.05): 51.26 ± 1 | relative permittivity at zero frequency ([1]; 283.15 K, w1 = 0.1): 54.06 ± 1.1 | relative permittivity at zero frequency ([1]; 283.15 K, w1 = 0.15): 55.7 ± 1.1 | relative permittivity at zero frequency ([1]; 283.15 K, w1 = 0.2): 57.23 ± 1.1 | relative permittivity at zero frequency ([1]; 283.15 K, w1 = 0.25): 58.96 ± 1.2 | relative permittivity at zero frequency ([1]; 288.15 K, w1 = 0.05): 50.01 ± 1 | relative permittivity at zero frequency ([1]; 288.15 K, w1 = 0.1): 51.84 ± 1 | relative permittivity at zero frequency ([1]; 288.15 K, w1 = 0.15): 52.87 ± 1.1 | relative permittivity at zero frequency ([1]; 288.15 K, w1 = 0.2): 54.96 ± 1.1 | relative permittivity at zero frequency ([1]; 288.15 K, w1 = 0.25): 55.78 ± 1.1 | relative permittivity at zero frequency ([1]; 293.15 K, w1 = 0.05): 48.57 ± 0.97 | relative permittivity at zero frequency ([1]; 293.15 K, w1 = 0.1): 50.49 ± 1 | relative permittivity at zero frequency ([1]; 293.15 K, w1 = 0.15): 51.35 ± 1 | relative permittivity at zero frequency ([1]; 293.15 K, w1 = 0.2): 53.36 ± 1.1 | relative permittivity at zero frequency ([1]; 293.15 K, w1 = 0.25): 54.3 ± 1.1 | relative permittivity at zero frequency ([1]; 298.15 K, w1 = 0.05): 47.78 ± 0.96 | relative permittivity at zero frequency ([1]; 298.15 K, w1 = 0.1): 48.96 ± 0.98 | relative permittivity at zero frequency ([1]; 298.15 K, w1 = 0.15): 50.43 ± 1 | relative permittivity at zero frequency ([1]; 298.15 K, w1 = 0.2): 52.23 ± 1.1 | relative permittivity at zero frequency ([1]; 298.15 K, w1 = 0.25): 52.77 ± 1.1

C[S+](C)[O-] [dimethyl sulfoxide] + OC[C@@H](O)[C@H](O)[C@@H](O)CO
relative permittivity at zero frequency ([1]; 283.15 K, w2 = 0): 50.58 ± 1 | relative permittivity at zero frequency ([1]; 288.15 K, w2 = 0): 49.42 ± 0.99 | relative permittivity at zero frequency ([1]; 293.15 K, w2 = 0): 47.81 ± 0.96 | relative permittivity at zero frequency ([1]; 298.15 K, w2 = 0): 47.3 ± 0.95
